Experimental data as given in PubChem BioAssay (NCI).
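A five-concentration, 48-hour dose response in 96-well plates underlies each endpoint, interpolated linearly between surrounding concentrations. TGI marks complete inhibition of growth.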

How the values were obtained:
Test in all cases: NCI anticancer screen, dose series, 48 h
786-0 renal = test system: 786-0 renal
A498 renal = test system: A498 renal
A549 NSCLC = test system: A549 NSCLC
ACHN renal = test system: ACHN renal
BT-549 breast = test system: BT-549 breast
CAKI-1 renal = test system: CAKI-1 renal
CCRF-CEM leukemia = test system: CCRF-CEM leukemia
COLO 205 colon = test system: COLO 205 colon
DU-145 prostate = test system: DU-145 prostate
EKVX NSCLC = test system: EKVX NSCLC
HCC-2998 colon = test system: HCC-2998 colon
HCT-116 colon = test system: HCT-116 colon
HCT-15 colon = test system: HCT-15 colon
HL-60(TB) leukemia = test system: HL-60(TB) leukemia
HOP-62 NSCLC = test system: HOP-62 NSCLC
HOP-92 NSCLC = test system: HOP-92 NSCLC
HS 578T breast = test system: HS 578T breast
HT29 colon = test system: HT29 colon
IGROV1 ovarian = test system: IGROV1 ovarian
K-562 leukemia = test system: K-562 leukemia
KM12 colon = test system: KM12 colon
LOX IMVI melanoma = test system: LOX IMVI melanoma
M14 melanoma = test system: M14 melanoma
MCF7 breast = test system: MCF7 breast
MDA-MB-231 breast = test system: MDA-MB-231 breast
MDA-MB-435 = test system: MDA-MB-435
MDA-N = test system: MDA-N
MOLT-4 leukemia = test system: MOLT-4 leukemia
NCI-H226 lung = test system: NCI-H226 lung
NCI-H23 lung = test system: NCI-H23 lung
NCI/ADR-RES ovarian = test system: NCI/ADR-RES ovarian
OVCAR-3 ovarian = test system: OVCAR-3 ovarian
OVCAR-4 ovarian = test system: OVCAR-4 ovarian
OVCAR-5 ovarian = test system: OVCAR-5 ovarian
OVCAR-8 ovarian = test system: OVCAR-8 ovarian
PC-3 prostate = test system: PC-3 prostate
RPMI-8226 leukemia = test system: RPMI-8226 leukemia
RXF 393 renal = test system: RXF 393 renal
SF-268 CNS = test system: SF-268 CNS
SF-295 CNS = test system: SF-295 CNS
SK-MEL-2 melanoma = test system: SK-MEL-2 melanoma
SK-MEL-28 melanoma = test system: SK-MEL-28 melanoma
SK-MEL-5 melanoma = test system: SK-MEL-5 melanoma
SK-OV-3 ovarian = test system: SK-OV-3 ovarian
SN12C renal = test system: SN12C renal
SNB-19 CNS = test system: SNB-19 CNS
SNB-75 CNS = test system: SNB-75 CNS
SW-620 colon = test system: SW-620 colon
T-47D breast = test system: T-47D breast
TK-10 renal = test system: TK-10 renal
U251 CNS = test system: U251 CNS
UACC-257 melanoma = test system: UACC-257 melanoma
UACC-62 melanoma = test system: UACC-62 melanoma
UO-31 renal = test system: UO-31 renal
MALME-3M melanoma = test system: MALME-3M melanoma
NCI-H460 lung = test system: NCI-H460 lung
NCI-H522 lung = test system: NCI-H522 lung
SF-539 CNS = test system: SF-539 CNS
SR leukemia = test system: SR leukemia

In the case of `Cc1ccsc1/C=N/Nc1cc(C)c2ccccc2n1`, the TGI (786-0 renal) is reported as 31.8 µM, the TGI (A498 renal) is reported as 23 µM and the TGI (A549 NSCLC) is reported as 52.3 µM. It also gave a TGI (ACHN renal) of 34.9 µM, a TGI (BT-549 breast) of 44.8 µM and a TGI (CAKI-1 renal) of 41.1 µM. For the same compound, the TGI (CCRF-CEM leukemia) was 57.8 µM, the TGI (COLO 205 colon) was 20.9 µM and the TGI (DU-145 prostate) was 32 µM. For the same compound, the TGI (EKVX NSCLC) was 28.8 µM, the TGI (HCC-2998 colon) was 31.7 µM and the TGI (HCT-116 colon) was 28.7 µM. For the same compound, the TGI (HCT-15 colon) was 28.2 µM, the TGI (HL-60(TB) leukemia) was 34.4 µM and the TGI (HOP-62 NSCLC) was 78.8 µM. It also gave a TGI (HOP-92 NSCLC) of 28.1 µM, a TGI (HS 578T breast) of 38.6 µM and a TGI (HT29 colon) of 15 µM. For the same compound, the TGI (IGROV1 ovarian) was 6.33 µM, the TGI (K-562 leukemia) was 78.4 µM and the TGI (KM12 colon) was 46 µM. The TGI (LOX IMVI melanoma) was 25.9 µM, the TGI (M14 melanoma) was 34.4 µM and the TGI (MCF7 breast) was 30.4 µM. It also gave a TGI (MDA-MB-231 breast) of 12.5 µM, a TGI (MDA-MB-435) of 30 µM and a TGI (MDA-N) of 29.3 µM. The TGI (MOLT-4 leukemia) was 35.1 µM, the TGI (NCI-H226 lung) was 37.1 µM and the TGI (NCI-H23 lung) was 31.3 µM. For the same compound, the TGI (NCI/ADR-RES ovarian) was 31 µM, the TGI (OVCAR-3 ovarian) was 26.6 µM and the TGI (OVCAR-4 ovarian) was 72.2 µM. For the same compound, the TGI (OVCAR-5 ovarian) was 90.3 µM, the TGI (OVCAR-8 ovarian) was 32.7 µM and the TGI (PC-3 prostate) was 51.4 µM. It also gave a TGI (RPMI-8226 leukemia) of 8.9 µM, a TGI (RXF 393 renal) of 47.8 µM and a TGI (SF-268 CNS) of 42.2 µM. It also gave a TGI (SF-295 CNS) of 37.8 µM, a TGI (SK-MEL-2 melanoma) of 51.2 µM and a TGI (SK-MEL-28 melanoma) of 30.2 µM. The TGI (SK-MEL-5 melanoma) was 9 µM, the TGI (SK-OV-3 ovarian) was 35.6 µM and the TGI (SN12C renal) was 34 µM. The TGI (SNB-19 CNS) was 32.8 µM, the TGI (SNB-75 CNS) was 31.4 µM and the TGI (SW-620 colon) was 48.7 µM. The TGI (T-47D breast) was over 100 µM, the TGI (TK-10 renal) was 31.9 µM and the TGI (U251 CNS) was 31.4 µM. The TGI (UACC-257 melanoma) was 21 µM, the TGI (UACC-62 melanoma) was 26.6 µM and the TGI (UO-31 renal) was 36.1 µM.
`CCc1n[nH]c(=O)[nH]1` gave a TGI (786-0 renal) of over 100 µM, a TGI (A549 NSCLC) of over 100 µM and a TGI (ACHN renal) of over 100 µM. The TGI (BT-549 breast) was over 100 µM, the TGI (CAKI-1 renal) was over 100 µM and the TGI (CCRF-CEM leukemia) was over 100 µM. It also gave a TGI (COLO 205 colon) of over 100 µM, a TGI (DU-145 prostate) of over 100 µM and a TGI (EKVX NSCLC) of over 100 µM. It also gave a TGI (HCC-2998 colon) of over 100 µM, a TGI (HCT-116 colon) of over 100 µM and a TGI (HCT-15 colon) of over 100 µM. It also gave a TGI (HOP-62 NSCLC) of over 100 µM, a TGI (HS 578T breast) of over 100 µM and a TGI (HT29 colon) of over 100 µM. It also gave a TGI (IGROV1 ovarian) of over 100 µM, a TGI (K-562 leukemia) of over 100 µM and a TGI (KM12 colon) of over 100 µM. It also gave a TGI (LOX IMVI melanoma) of over 100 µM, a TGI (M14 melanoma) of over 100 µM and a TGI (MALME-3M melanoma) of over 100 µM. The TGI (MCF7 breast) was over 100 µM, the TGI (MDA-MB-231 breast) was over 100 µM and the TGI (MDA-MB-435) was over 100 µM. For the same compound, the TGI (MDA-N) was over 100 µM, the TGI (MOLT-4 leukemia) was over 100 µM and the TGI (NCI-H23 lung) was over 100 µM. For the same compound, the TGI (NCI-H460 lung) was over 100 µM, the TGI (NCI-H522 lung) was over 100 µM and the TGI (NCI/ADR-RES ovarian) was over 100 µM. For the same compound, the TGI (OVCAR-3 ovarian) was over 100 µM, the TGI (OVCAR-5 ovarian) was over 100 µM and the TGI (OVCAR-8 ovarian) was over 100 µM. It also gave a TGI (PC-3 prostate) of over 100 µM, a TGI (RXF 393 renal) of over 100 µM and a TGI (SF-268 CNS) of over 100 µM. The TGI (SF-295 CNS) was over 100 µM, the TGI (SF-539 CNS) was over 100 µM and the TGI (SK-MEL-2 melanoma) was over 100 µM. It also gave a TGI (SK-MEL-5 melanoma) of over 100 µM, a TGI (SK-OV-3 ovarian) of over 100 µM and a TGI (SN12C renal) of over 100 µM. For the same compound, the TGI (SNB-19 CNS) was over 100 µM, the TGI (SNB-75 CNS) was over 100 µM and the TGI (SR leukemia) was over 100 µM. The TGI (T-47D breast) was over 100 µM, the TGI (TK-10 renal) was over 100 µM and the TGI (UACC-257 melanoma) was over 100 µM. For the same compound, the TGI (UACC-62 melanoma) was over 100 µM and the TGI (UO-31 renal) was over 100 µM.
